What was measured:
[1] = test system: (+)-MK-801-induced memory deficits; test: Novel object recognition (NOR) test in (+)-MK-801 treated rats; type: in vivo, male Wistar rats; conditions: rat; for Total Exploratory Time in T2 Session: vehicle 49.67 ± 4.63
Protocol: The rats were injected with the respective compounds for 21 consecutive days at the minimum active doses selected previously, based on acute treatment and assessment in the NOR test. The protocol for the NOR test was adapted from the original work and the test was performed according to the previously described protocol, 24 h after the last injection of the investigated compound. The discrimination index (DI) was calculated according to the formula:(7) DI=(EB−EA)/(EA+EB) where EB is the exploration time of novel object during the T2 session and EA is the exploration time of […].
PQA-AZ4 and PQA-AZ-6 were administered for 60 and 30 min, respectively, before the T1 phase (the familiarization phase). MK-801 was used to attenuate learning and was administered at a dose of 0.1 mg/kg (i.p.) 30 min before the familiarization phase (T1). The total exploration time in T2 was used to determine the influence of the treatment on the exploratory activity of the animals.

rats [2] = test: Forced swim test (FST); type: in vivo, male Wistar rats; conditions: rat
Protocol: The rats were injected for 21 consecutive days at a dose of 1 mg/kg, similar to the dose used in acute treatment, as per data presented in Supplementary Materials (Table S1). The FST was conducted according to the method of Porsolt. On the first day of the experiment, the animals were gently placed individually for 15 min in Plexiglas cylinders (40 cm high, 18 cm in diameter) containing 15 cm of water maintained at 23–25 °C. On removal from water, the rats were placed for 30 min in a Plexiglas box under a 60 W bulb to dry. On the following day (24 h later), the rats were replaced in the cylinder and the total duration of immobility was recorded during the whole 5 min test period. Immobility was assigned when no additional activity was observed other than that necessary to keep the rat’s head above the water. Fresh water was used for each animal.
FST after acute administration of the investigated compounds
Rats were injected 60 min before the test at a dose of 1 mg/kg. FST was carried out according to the method of Porsolt, and the same procedure was used for chronic treatment.
Table S1. Effect of acute treatment of PQA-AZ4, PQA-AZ6, and PQ-10 on the immobility time in the […]
Compound (mg/kg) Immobility time (s)
Compounds were injected i.p. 60 min before the test. Values represent the means ± SEM of immobility in the FST during a 5 min test session. The data were analyzed using one -way ANOVA, followed by Bonferroni‘s post hoc test; NS = nonsignificant; N=7-8.

Bdnf gene = Bdnf gene expression in brain structures (RT-qPCR, ex vivo); set-up: species or system rats; conditions: rat, 1 mg/kg/day i.p., 21 days
Protocol: Animals in all treatment groups were sacrificed by rapid decapitation immediately after the behavioral tests, when the brains and blood samples were collected. For quantitative reverse transcription-polymerase chain reaction (RT-qPCR), the brains of rats were rapidly removed, and the hippocampus and prefrontal cortex were dissected on an ice-cold glass plate. The tissues were frozen in dry ice and stored at −80 °C until required.
The total RNA was extracted from tissues using an RNA Isolation kit (Thermo Fisher Scientific, Rockford, IL, USA), and its concentration was normalized to 20 ng/μL. Reverse transcription was performed with a High-Capacity Reverse Transcription Kit (Life Technologies, Grand Island, NY, USA). A qPCR fast 96-well reaction plate was used for the process with TaqMan Gene Expression assay (Life Technologies) for brain-derived neurotrophic factor Bdnf (Rn02531967_s1) on an Applied Biosystems® 7500 Fast Real-Time PCR Instrument (Applied Biosystems, Foster City, CA, USA), according to the manufacturer’s protocol. Glyceraldehyde-3-phosphate dehydrogenase, Gapdh (Rn01775763_g1), was selected as endogenous control, based on the pilot experiment. Relative normalized expression was calculated using the ΔΔCq method.

rats [3] = test: 18-hour spontaneous activity monitoring; type: in vivo, male Wistar rats; conditions: rat, after 20-day administration, 1 mg/kg/day i.p., 18-h monitoring
Protocol: Spontaneous activity was measured on the 20th day of the treatment with a special, innovative, radio-frequency identification system (RFID-system), TraffiCage (TSE-Systems, Bad Homburg, Germany). The test was conducted according to the method described previously. The animals had RFID transmitters implanted subcutaneously, which tracked the time they spent in different areas of the cage.

Body weight measurement = type: in vivo, rats; conditions: rat, 20-day administration, 1 mg/kg/day i.p.
Protocol: Body weight was measured every second day, immediately before the administration of drugs.

[4] = Serum glucose, triglyceride and cholesterol concentrations; type: in vivo, rats; conditions: rat, 1 mg/kg/day i.p., 21 days
Protocol: The blood samples were collected immediately after decapitation and then centrifuged at 600× g […], 4 °C, to separate the plasma. The blood was used to determine metabolic parameters such as glucose, cholesterol, and triglyceride levels, together with liver enzymatic activity.
Standard enzymatic spectrophotometric tests (Biomaxima S.A., Lublin, Poland) were used to determine glucose, cholesterol, and triglyceride levels in the serum. In the presence of an appropriate enzyme, the substrate was converted to a colored compound. Absorbance was measured at a wavelength of 500 nm.

[5] = Ferric-reducing antioxidant power (FRAP) of serum; type: in vivo, rats; conditions: rat, 1 mg/kg/day i.p., 21 days
Protocol: The assay was performed according to Benzie and Strain [46] with some modifications. The FRAP working solution was prepared before the start of the analysis, namely, 0.3 mol acetate buffer (pH 3.6), 0.01 mol TPTZ (2,4,6-tripyridyl-s-triazine; Sigma-Aldrich) in 0.04 mol HCl (POCh, Gliwice, Poland), and 0.02 M FeCl3×6H2O in water (iron (III) chloride hexahydrate; Chempur, Piekary Śląskie, Poland) were mixed in a volumetric ratio of 10:1:1 and protected from light.
Next, 20 µL of the plasma sample tested, brain homogenate, or FeSO4×7H2O solution was mixed with 180 µL of the FRAP working solution. The mixtures obtained were incubated at 37 °C for 30 min and their absorbance was measured at 593 nm. FeSO4×7H2O (100–1000 µM/L) was used for a calibration curve. Deionized water with FRAP solution was used as a blank.

[6] = chronic 1 mg/kg/day i.p., 21 days

Structure (SMILES) | Total Exploratory Time in T2 Session ([1]; (+)-MK-801 0.1 mg/kg i.p. + vehicle) | Immobility time (rats [2]; acute 1 mg/kg i.p., 60 min before test, 5 min session, vehicle 255.9 ± 8.6) | antidepressant-like activity in FST (rats [2]; [6]) | decrease of immobility vs. control group in FST (rats [2]; [6]) | Bdnf expression upregulation vs control, hippocampus (Bdnf gene; hippocampus (Hipp)) | Bdnf expression upregulation vs control, prefrontal cortex (Bdnf gene; prefrontal cortex (PFX)) | Total Exploratory Time in T2 Session ([1]; 0.3 mg/kg/day i.p. 21 days + (+)-MK-801 0.1 mg/kg) | effect on (+)-MK-801-induced recognition memory deficits (discrimination index) ([1]; 0.3 mg/kg/day i.p., 21 days, (+)-MK-801 0.1 mg/kg i.p.) | spontaneous activity vs vehicle (rats [3]) | weight gain vs vehicle (Body weight measurement) | serum glucose concentration vs vehicle [4] | serum triglycerides concentration vs vehicle [4] | total cholesterol concentration vs vehicle [4] | total antioxidant activity of serum (Fe2+ formed, FRAP) vs control [5]
C[C@]12N[C@H](Cc3ccccc31)c1ccccc12 [(+)-MK-801, Dizocilpine, reference compound] | 44.00 ± 4.05 s | – | – | – | – | – | – | – | – | – | – | – | – | –
COc1cc2ncnc(N3CC[C@@H](Oc4cnc5ccccc5n4)C3)c2cc1OC [PQ-10, 6,7-dimethoxy-4-[(3R)-3-(2-quinoxalinyloxy)-1-pyrrolidinyl]-quinazoline, reference compound] | – | 249.1 ± 10.4 s | showed antidepressant-like properties | about 9% | about 17 fold | about 34 fold | 47.13 ± 5.69 F(2,18) = 0.3006; NS s | restored recognition memory deficits | No significant effect | did not result in a change | did not significantly change | did not significantly change | slight but statistically significant (p < 0.05) increase | comparable
